From BigSolDB 2.1

COc1cnc(Cl)nc1Cl
Conditions | solubility (mole fraction)
in acetone, 297.35 K | 0.348
in acetone, 299.36 K | 0.368
in acetone, 301.17 K | 0.386
in acetone, 303.13 K | 0.403
in acetone, 304.54 K | 0.42
in acetone, 306.18 K | 0.436
in acetone, 307.53 K | 0.45
in acetone, 308.97 K | 0.466
in acetone, 310.25 K | 0.481
in acetone, 311.37 K | 0.492
in ethanol, 299.44 K | 0.0474
in ethanol, 301.27 K | 0.0527
in ethanol, 303.17 K | 0.0584
in ethanol, 305.17 K | 0.0655
in ethanol, 307.06 K | 0.0745
in ethanol, 309.05 K | 0.0855
in ethanol, 310.73 K | 0.0972
in ethanol, 312.58 K | 0.11
in ethanol, 314 K | 0.125
in ethanol, 315.47 K | 0.141
in ethanol, 316.61 K | 0.158
in ethyl acetate, 295.6 K | 0.288
in ethyl acetate, 296.53 K | 0.295
in ethyl acetate, 298.25 K | 0.311
in ethyl acetate, 300.66 K | 0.33
in ethyl acetate, 302.28 K | 0.347
in ethyl acetate, 304.15 K | 0.364
in ethyl acetate, 305.62 K | 0.382
in ethyl acetate, 307.47 K | 0.401
in ethyl acetate, 309.19 K | 0.422
in ethyl acetate, 311.16 K | 0.444
in ethyl acetate, 313.07 K | 0.468
in ethyl acetate, 314.57 K | 0.49
in ethyl acetate, 316.39 K | 0.513
in methanol, 302.37 K | 0.0598
in methanol, 303.78 K | 0.0659
in methanol, 305.44 K | 0.0734
in methanol, 306.57 K | 0.0803
in methanol, 308.12 K | 0.0893
in methanol, 309.67 K | 0.102
in methanol, 311.15 K | 0.114
in methanol, 312.43 K | 0.13
in methanol, 313.55 K | 0.146
in methanol, 314.81 K | 0.163
in methanol, 315.8 K | 0.181
in methanol, 316.95 K | 0.202
in n-heptane, 298.1 K | 0.0094
in n-heptane, 299.83 K | 0.0104
in n-heptane, 302.1 K | 0.0116
in n-heptane, 303.81 K | 0.0129
in n-heptane, 305.72 K | 0.0141
in n-heptane, 307.55 K | 0.0157
in n-heptane, 309.57 K | 0.0174
in n-heptane, 310.97 K | 0.0192
in n-heptane, 312.89 K | 0.0214
in n-heptane, 315.04 K | 0.0239
in n-heptane, 317.15 K | 0.0268
in n-heptane, 318.83 K | 0.0296
in n-heptane, 320.08 K | 0.0324
in tetrachloromethane, 298.6 K | 0.123
in tetrachloromethane, 299.42 K | 0.13
in tetrachloromethane, 300.63 K | 0.143
in tetrachloromethane, 301.97 K | 0.159
in tetrachloromethane, 303.35 K | 0.178
in tetrachloromethane, 304.82 K | 0.196
in tetrachloromethane, 305.8 K | 0.214
in tetrachloromethane, 306.87 K | 0.237
in tetrachloromethane, 308.2 K | 0.261
in tetrachloromethane, 309.57 K | 0.288
in tetrachloromethane, 310.9 K | 0.315
in tetrachloromethane, 312.15 K | 0.343
